Experimental data: patent US7855205B2, “Pyrimidinyl substituted fused-pyrrolyl compounds useful in treating kinase disorders” (Janssen Pharmaceutica NV, priority 2004, dated 2010)

Tests used:
Aurora-A = molecular target: T1, Aurora-A (Mus musculus, UniProt P97477); assay: Aurora-A Screening Assay; assay type: biochemical, murine; conditions: 33P-γ-ATP incorporation, 10 μM ATP
T1 construct: made in house; host or cells: sf9 insect cells
T1 sequence (P97477 1-395): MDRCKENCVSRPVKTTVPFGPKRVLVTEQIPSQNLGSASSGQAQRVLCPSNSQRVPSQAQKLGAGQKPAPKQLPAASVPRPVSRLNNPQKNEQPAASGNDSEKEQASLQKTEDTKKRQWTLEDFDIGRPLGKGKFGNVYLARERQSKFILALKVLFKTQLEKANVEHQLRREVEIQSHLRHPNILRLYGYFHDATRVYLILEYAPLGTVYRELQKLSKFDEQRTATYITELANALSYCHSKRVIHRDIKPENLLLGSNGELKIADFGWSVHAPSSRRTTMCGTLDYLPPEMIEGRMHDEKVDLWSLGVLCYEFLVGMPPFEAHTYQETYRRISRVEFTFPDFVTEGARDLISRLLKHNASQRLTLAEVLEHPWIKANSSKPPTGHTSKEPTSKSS
Experimental: (§1) A kinase reaction mixture was prepared containing 50 mM Tris-HCl pH=8, 10 mM MgCl2, 0.1 mM […], 1 mM DTT, 10 μM ATP, 0.025 μM biotinylated histone-HI peptide substrate and […] per well ^33P-γ-ATP (2000-3000 Ci/mmol). 70 μL of the kinase reaction mixture was dispensed into the well of a streptavidin coated FlashPlate™ (Cat. # SMP103, NEN, Boston, Mass.). Then 1 μL of test compound stock in 100% DMSO was added to the wells resulting in a final concentration of 1% DMSO in the reaction with a 100 μL final reaction volume.
(§2) The CDK1:Cyclin-B protein was then diluted in 50 mM Tris-HCl pH=8.0, 0.1% BSA at a concentration of 1 ng per μL and 30 μL (30 ng enzyme per test well) was added to each well to initiate the reaction. The reaction was incubated for one hour at 30° C. At the end of the 1 h incubation, the reaction was terminated by aspirating the mixture from the plate and washing the wells twice with PBS containing 100 mM EDTA. The histone-H1 biotinylated peptide substrate became immobilized on the Flashplate™ and the incorporation of ^33P-γ-ATP was measured by reading the plate on a scintillation counter. Inhibition of the enzymatic activity of CDK1 was measured by observing a reduced amount of ^33P-γ-ATP incorporated into the immobilized peptide.
The Aurora-A kinase assay was carried out using the CDK kinase assay procedure except that the enzyme was replaced with the full length protein encoding the murine Aurora-A (Accession# GB BC014711) expressed and purified from sf9 insect cells.
(§3) • VEGF-R2, HER2 and (Biotin)[…]-Amide • RET kinases • CDK1 (Biotin)[…]-Amide • Aurora-A kinase Biotin-[…]-Amide

A375 malignant melanoma = assay: Inhibition of cell proliferation (14C-thymidine incorporation), A375; assay type: cell-based, human; conditions: Homo sapiens, A-375
Experimental: (§4) The ability of a test compound to inhibit the proliferation of cell growth was determined by measuring incorporation of ^14C-labelled thymidine into newly synthesized DNA within the cells. This method was used on cell lines derived from carcinomas originating from several tissues such as HeLa cervical adenocarcinoma (American Type Culture Collection (ATCC), Virginia, Cat. #CCL-2), A375 malignant melanoma (ATCC CRL-1619), HCT-116 colon carcinoma (CCL-247). In this way the effect of a compound on cell growth of cells with many different phenotypes can be determined. Cells were trypsinized and counted and 3000-8000 cells were added to each well of a 96-well CytoStar tissue culture treated scintillating microplate (Amersham #RPNQ0160) in complete medium in a volume of 100 μL. Cells were incubated for 24 hours in complete medium at 37° C. in an atmosphere containing 5% CO2.
(§5) Next, 1 μL of test compound in 100% DMSO was added to the wells of the plate. DMSO only was added to control wells. Cells were incubated for 24 more hours in complete medium at 37° C. in an atmosphere containing 5% CO2. Methyl ^14C-thymidine 56 mCi/mmol (NEN #NEC568 or Amersham #CFA532) was diluted in complete medium and 0.2 uCi/well was added to each well of the CytoStar plate in a volume of 20 μl. The plate was incubated for 24 hours at 37° C. plus 5% CO2 in drug plus ^14C-thymidine. The contents of the plate discarded into a ^14C radioactive waste container by inverting the plate and the plate was washed twice with 200 μL PBS.
(§6) 200 μL of PBS is added to each well. The top of the plate was sealed with a transparent plate sealer and a white plate backing sealer (Packard #6005199) was applied to the bottom of the plate. The degree of methyl ^14C-thymidine incorporation was quantified on a Packard Top Count.

CDK1:Cyclin-B = molecular target: T2, CDK1:Cyclin-B (Homo sapiens, UniProt P06493); assay: CDK1 Screening Assay; assay type: biochemical; conditions: 33P-γ-ATP incorporation, 10 μM ATP
T2 construct: purchased New England Biolabs, Beverly, Mass; 6020; host or cells: insect cells
T2 sequence (P06493 whole entry): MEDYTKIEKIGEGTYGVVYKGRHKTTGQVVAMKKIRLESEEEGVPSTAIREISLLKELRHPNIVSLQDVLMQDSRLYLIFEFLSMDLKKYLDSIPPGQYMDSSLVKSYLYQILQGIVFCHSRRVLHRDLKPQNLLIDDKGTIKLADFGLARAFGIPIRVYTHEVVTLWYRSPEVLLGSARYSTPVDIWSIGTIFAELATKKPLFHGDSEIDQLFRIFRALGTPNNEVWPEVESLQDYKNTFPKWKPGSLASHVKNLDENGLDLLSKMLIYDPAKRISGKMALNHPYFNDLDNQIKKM
T2 sequence (P14635 whole entry partner): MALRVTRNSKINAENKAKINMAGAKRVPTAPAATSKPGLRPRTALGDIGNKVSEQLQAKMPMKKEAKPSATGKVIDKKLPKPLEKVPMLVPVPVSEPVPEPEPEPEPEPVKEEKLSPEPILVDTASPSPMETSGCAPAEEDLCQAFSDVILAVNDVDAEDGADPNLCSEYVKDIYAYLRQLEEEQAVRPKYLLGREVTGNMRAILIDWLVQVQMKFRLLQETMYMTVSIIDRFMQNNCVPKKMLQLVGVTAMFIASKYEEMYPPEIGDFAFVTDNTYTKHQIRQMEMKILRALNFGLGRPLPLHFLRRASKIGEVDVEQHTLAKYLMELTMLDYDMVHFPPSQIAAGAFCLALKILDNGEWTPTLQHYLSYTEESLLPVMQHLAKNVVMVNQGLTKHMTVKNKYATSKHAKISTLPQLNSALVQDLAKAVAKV
Experimental: as §1, §2
The CDK1 used was isolated from insect cells expressing both the human CDK1 catalytic subunit and its positive regulatory subunit cyclin B (New England Biolabs, Beverly, Mass., Cat. #6020).
as §3

VEGF-R2 = molecular target: T3, VEGF-R2 (Rattus norvegicus, UniProt O08775); assay: VEGF-R2 Screening Assay; assay type: biochemical; conditions: 33P-γ-ATP incorporation, 10 μM ATP
T3 construct: polyhistidine (N)
T3 sequence (O08775 786-1343): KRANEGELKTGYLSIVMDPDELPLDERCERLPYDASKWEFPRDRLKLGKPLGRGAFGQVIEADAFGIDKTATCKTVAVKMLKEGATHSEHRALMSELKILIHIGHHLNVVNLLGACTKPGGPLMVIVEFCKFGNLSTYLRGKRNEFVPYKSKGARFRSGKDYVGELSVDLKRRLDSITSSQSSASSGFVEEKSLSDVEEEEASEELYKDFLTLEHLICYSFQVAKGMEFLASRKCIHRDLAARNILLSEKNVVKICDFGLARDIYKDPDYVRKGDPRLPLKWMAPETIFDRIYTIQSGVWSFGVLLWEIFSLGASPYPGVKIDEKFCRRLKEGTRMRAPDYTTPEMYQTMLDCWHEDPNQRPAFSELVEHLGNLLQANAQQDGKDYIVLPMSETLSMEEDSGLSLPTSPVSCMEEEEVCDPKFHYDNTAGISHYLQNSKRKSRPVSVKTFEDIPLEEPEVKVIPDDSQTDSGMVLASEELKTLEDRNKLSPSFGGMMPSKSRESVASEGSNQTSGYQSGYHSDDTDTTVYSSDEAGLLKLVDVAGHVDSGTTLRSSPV
Experimental: as §2, with “Then 1 μL of test compound stock in 100% DMSO was added to the wells resulting in a final concentration of 1% DMSO in the reaction with a 100 μL final reaction volume. The CDK1:Cyclin-B” for “The CDK1:Cyclin-B”, “immobilized peptide. The VEGF-R kinase assay was carried out using the CDK kinase assay procedure except that the enzyme was replaced with the VEGF-R2 fusion protein containing a polyhistidine tag at the N-terminus followed by amino acids 786-1343 of the rat VEGF-R2 kinase domain (GenBank Accession #U93306).” for “immobilized peptide.”

[1] = tested on: HeLa cervical adenocarcinoma; assay: Inhibition of cell proliferation (14C-thymidine incorporation), HeLa; assay type: cell-based; conditions: Homo sapiens;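 note: HeLa cells in 96-well scintillating plates, compound for 24 h then 24 h more with 14C-thymidine, counting label built into new DNA against DMSO-only control wells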
HCT-116 colon carcinoma = assay: Inhibition of cell proliferation (14C-thymidine incorporation), HCT-116; assay type: cell-based; conditions: Homo sapiens, HCT-116, HCT116
Experimental: as §4, §5, §6

Row | IC50 (Aurora-A) [µM] | IC50 (A375 malignant melanoma) [µM] | IC50 (CDK1:Cyclin-B) [µM] | IC50 (VEGF-R2) [µM] | IC50 [1] [µM] | IC50 (HCT-116 colon carcinoma) [µM] | SMILES
1 | 4.19 | 16.4 | 2.11 | 10 | 34.7 | 40 | CC(=O)NC1CCN(c2nccc(-c3c[nH]c4ncccc34)n2)CC1 [Cpd 63, N-{1-[4-(1H-pyrrolo[2,3-b]pyridin-3-yl)-pyrimidin-2-yl]-piperidin-4-yl}acetamide]
2 | 0.166 | 0.00467 | 0.012 | 2.11 | 0.0082 | 0.00756 | c1cnc2[nH]cc(-c3ccnc(NC4CCCCCC4)n3)c2c1 [Cpd 15, Cycloheptyl-[4-(1H-pyrrolo[2,3-b]pyridin-3-yl)-pyrimidin-2-yl]-amine]
3 | 0.32 | 0.0317 | 0.0308 | 1 | 0.023 | 0.0129 | CC(=O)n1cc(-c2ccnc(NC3CCCCC3)n2)c2cccnc21 [Cpd 68, Cyclohexyl-[4-(1-acetyl-1H-pyrrolo[2,3-b]pyridin-3-yl)pyrimidin-2-yl]-amine]
4 | 2.36 | 0.504 | 0.128 | 1 | 0.393 | 0.298 | CS(=O)(=O)n1cc(-c2ccnc(NC3CCCCC3)n2)c2cccnc21 [Cpd 67, Cyclohexyl-[4-(1-methanesulfonyl-1H-pyrrolo[2,3-b]pyridin-3-yl)pyrimidin-2-yl]-amine]
5 | 3.98 | 0.0973 | 0.283 | 10 | 0.135 | 0.0732 | Cc1[nH]c2ncccc2c1-c1ccnc(N[C@H]2CC[C@H](N)CC2)n1 [Cpd 57, trans-N-[4-(2-Methyl-1H-pyrrolo[2,3-b]pyridin-3-yl)-pyrimidin-2-yl]-cyclohexane-1,4-diamine]
6 | 0.885 | 0.093 | 0.088 | 2.23 | 0.059 | 0.078 | c1cnc2[nH]cc(-c3ccnc(NC4CCCC4)n3)c2c1 [Cpd 14, Cyclopentyl-[4-(1H-pyrrolo[2,3-b]pyridin-3-yl)-pyrimidin-2-yl]-amine]
7 | 0.1 | 0.11 | 0.046 | 1 | 0.0992 | 0.105 | Fc1ccccc1Nc1nccc(-c2c[nH]c3ncccc23)n1 [Cpd 31, (2-Fluorophenyl)-[4-(1H-pyrrolo[2,3-b]pyridin-3-yl)-pyrimidin-2-yl]-amine]
8 | 0.175 | 0.0676 | 0.0127 | 1 | 0.0952 | 0.118 | Brc1ccccc1Nc1nccc(-c2c[nH]c3ncccc23)n1 [Cpd 28, (2-Bromophenyl)-[4-(1H-pyrrolo[2,3-b]pyridin-3-yl)-pyrimidin-2-yl]-amine]
9 | 0.735 | 0.862 | 0.168 | 1.66 | 0.384 | 0.242 | Oc1ccc(Nc2nccc(-c3c[nH]c4ncccc34)n2)cc1 [Cpd 39, (4-Hydroxyphenyl)-[4-(1H-pyrrolo[2,3-b]pyridin-3-yl)-pyrimidin-2-yl]-amine]
10 | 0.289 | 1.65 | 0.139 | 0.049 | 0.956 | 0.652 | Oc1ccccc1Nc1nccc(-c2c[nH]c3ncccc23)n1 [Cpd 30, (2-Hydroxyphenyl)-[4-(1H-pyrrolo[2,3-b]pyridin-3-yl)-pyrimidin-2-yl]-amine]
11 | 0.262 | 0.00242 | 0.0066 | 2.78 | 0.00292 | 0.00297 | NC1CCC(Nc2nccc(-c3c[nH]c4ncccc34)n2)CC1 (mixture of isomers) [Cpd 43, (4-Aminocyclohexyl)-[4-(1H-pyrrolo[2,3-b]pyridin-3-yl)-pyrimidin-2-yl]-amine]
12 | 1.01 | 0.00225 | 0.00426 | 6.71 | 0.00374 | 0.00313 | CNCC[C@H]1CC[C@H](Nc2nccc(-c3c[nH]c4ncccc34)n2)CC1 [Cpd 78, trans-[4-(2-Methylaminoethyl)-cyclohexyl]-[4-(1H-pyrrolo[2,3-b]pyridin-3-yl)-pyrimidin-2-yl]-amine]
13 | 0.312 | 0.014 | 0.012 | 3.81 | 0.0243 | 0.0208 | CC1CCC(Nc2nccc(-c3c[nH]c4ncccc34)n2)CC1 (mixture of isomers) [Cpd 17, (4-Methyl-cyclohexyl)-[4-(1H-pyrrolo[2,3-b]pyridin-3-yl)-pyrimidin-2-yl]-amine]
14 | 6.06 | 0.165 | 0.6 | 10 | 0.144 | 0.077 | OCCn1cc(-c2ccnc(N[C@H]3CC[C@H](O)CC3)n2)c2cccnc21 [Cpd 72, trans-4-{4-[1-(2-Hydroxyethyl)-1H-pyrrolo[2,3-b]pyridin-3-yl]-pyrimidin-2-ylamino}-cyclohexanol]

Row | SMILES | IC50 (Aurora-A) [µM] | IC50 (A375 malignant melanoma) [µM] | IC50 (CDK1:Cyclin-B) [µM] | IC50 (VEGF-R2) [µM] | IC50 [1] [µM] | IC50 (HCT-116 colon carcinoma) [µM]
15 | CN1CCC(Nc2nccc(-c3c[nH]c4ncccc34)n2)CC1 [Cpd 61, (1-Methylpiperidin-4-yl)-[4-(1H-pyrrolo[2,3-b]pyridin-3-yl)-pyrimidin-2-yl]-amine] | 2.25 | 0.0214 | 0.129 | 10 | 0.026 | 0.0153
16 | Cc1cc(CCN2CCN(C)CC2)ccc1Nc1nccc(-c2c[nH]c3ncccc23)n1 [Cpd 51, {4-[2-(4-Methylpiperizin-1-yl)ethyl]-2-methylphenyl}-[4(1H-pyrrolo[2,3-b]pyridin-3-yl)-pyrimidin-2-yl]-amine] | 0.895 | 0.00352 | 0.0026 | 1.25 | 0.00466 | 0.00361
